Experimental data as given in ChEMBL document CHEMBL5291721, “A preclinical secondary pharmacology resource illuminates target-adverse drug reaction associations of marketed drugs” (Nat Commun, 2023).

Assays:
[1] = biological target: T1, Muscarinic acetylcholine receptor M1 (Homo sapiens, UniProt P11229); format: functional, cell-based
T1 sequence (P11229 whole entry): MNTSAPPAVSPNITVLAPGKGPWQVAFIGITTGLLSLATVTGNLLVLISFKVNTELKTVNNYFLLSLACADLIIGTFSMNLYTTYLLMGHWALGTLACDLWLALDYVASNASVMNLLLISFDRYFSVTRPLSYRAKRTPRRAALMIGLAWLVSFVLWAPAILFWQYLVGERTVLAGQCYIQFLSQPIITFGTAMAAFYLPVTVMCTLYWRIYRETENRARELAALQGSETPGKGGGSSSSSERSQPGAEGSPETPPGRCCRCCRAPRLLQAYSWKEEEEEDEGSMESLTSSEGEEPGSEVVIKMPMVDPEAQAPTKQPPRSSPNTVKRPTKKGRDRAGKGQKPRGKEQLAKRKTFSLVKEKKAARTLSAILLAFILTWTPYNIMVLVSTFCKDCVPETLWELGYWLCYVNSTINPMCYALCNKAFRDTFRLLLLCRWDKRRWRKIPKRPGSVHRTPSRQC

[2] = biological target: T2, Muscarinic acetylcholine receptor M2 (Homo sapiens, UniProt P08172)
T2 sequence (P08172 whole entry): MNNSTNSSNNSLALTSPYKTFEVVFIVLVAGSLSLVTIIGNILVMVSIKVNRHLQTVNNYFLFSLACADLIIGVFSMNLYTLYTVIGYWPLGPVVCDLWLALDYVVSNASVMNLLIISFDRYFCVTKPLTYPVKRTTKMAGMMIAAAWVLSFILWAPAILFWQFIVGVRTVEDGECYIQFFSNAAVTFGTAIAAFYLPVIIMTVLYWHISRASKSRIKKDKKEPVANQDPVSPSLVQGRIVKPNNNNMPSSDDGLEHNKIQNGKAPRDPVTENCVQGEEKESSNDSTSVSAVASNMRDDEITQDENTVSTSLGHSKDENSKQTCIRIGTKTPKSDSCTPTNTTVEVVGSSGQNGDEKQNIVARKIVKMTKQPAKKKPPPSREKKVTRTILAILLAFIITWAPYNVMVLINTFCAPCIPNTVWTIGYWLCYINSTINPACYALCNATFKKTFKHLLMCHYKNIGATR

D(3) dopamine receptor [3] = biological target: T3, D(3) dopamine receptor (Homo sapiens, UniProt P35462)
T3 sequence (P35462 whole entry): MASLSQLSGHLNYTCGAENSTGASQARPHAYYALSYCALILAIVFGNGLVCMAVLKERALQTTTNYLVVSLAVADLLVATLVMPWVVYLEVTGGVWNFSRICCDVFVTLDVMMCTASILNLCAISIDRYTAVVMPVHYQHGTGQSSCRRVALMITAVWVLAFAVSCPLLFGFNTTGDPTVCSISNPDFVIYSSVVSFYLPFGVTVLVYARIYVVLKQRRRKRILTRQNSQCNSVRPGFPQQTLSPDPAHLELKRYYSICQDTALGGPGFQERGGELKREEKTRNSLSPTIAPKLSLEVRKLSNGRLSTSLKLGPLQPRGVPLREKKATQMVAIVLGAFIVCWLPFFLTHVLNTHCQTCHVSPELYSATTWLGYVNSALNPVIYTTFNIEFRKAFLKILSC

[4] = biological target: 3',5'-cyclic-AMP phosphodiesterase 4A (Homo sapiens, UniProt P27815); format: functional
Sequence of 3',5'-cyclic-AMP phosphodiesterase 4A (P27815 whole entry): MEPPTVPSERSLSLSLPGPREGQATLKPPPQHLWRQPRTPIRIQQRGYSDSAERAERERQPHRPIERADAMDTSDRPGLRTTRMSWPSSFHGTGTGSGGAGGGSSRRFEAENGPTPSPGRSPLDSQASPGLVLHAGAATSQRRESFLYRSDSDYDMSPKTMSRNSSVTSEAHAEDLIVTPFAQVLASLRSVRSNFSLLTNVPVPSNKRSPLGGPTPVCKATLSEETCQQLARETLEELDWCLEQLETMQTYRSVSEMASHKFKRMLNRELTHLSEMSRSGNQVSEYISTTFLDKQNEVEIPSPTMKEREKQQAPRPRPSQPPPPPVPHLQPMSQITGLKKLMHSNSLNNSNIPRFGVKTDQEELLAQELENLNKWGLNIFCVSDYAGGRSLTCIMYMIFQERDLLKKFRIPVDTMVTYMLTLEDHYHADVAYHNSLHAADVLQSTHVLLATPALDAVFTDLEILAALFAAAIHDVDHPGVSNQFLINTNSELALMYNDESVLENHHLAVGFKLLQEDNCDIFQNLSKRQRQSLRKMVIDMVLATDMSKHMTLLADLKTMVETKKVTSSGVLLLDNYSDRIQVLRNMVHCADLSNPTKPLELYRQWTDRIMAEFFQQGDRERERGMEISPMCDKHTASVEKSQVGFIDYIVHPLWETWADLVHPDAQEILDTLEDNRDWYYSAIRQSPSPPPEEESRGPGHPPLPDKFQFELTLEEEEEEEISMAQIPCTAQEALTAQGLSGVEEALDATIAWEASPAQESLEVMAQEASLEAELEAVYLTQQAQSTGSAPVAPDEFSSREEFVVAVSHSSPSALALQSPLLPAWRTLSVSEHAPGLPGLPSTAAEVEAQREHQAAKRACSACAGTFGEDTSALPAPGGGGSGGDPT

Adenosine receptor A1 = biological target: T4, Adenosine receptor A1 (Homo sapiens, UniProt P30542)
T4 sequence (P30542 whole entry): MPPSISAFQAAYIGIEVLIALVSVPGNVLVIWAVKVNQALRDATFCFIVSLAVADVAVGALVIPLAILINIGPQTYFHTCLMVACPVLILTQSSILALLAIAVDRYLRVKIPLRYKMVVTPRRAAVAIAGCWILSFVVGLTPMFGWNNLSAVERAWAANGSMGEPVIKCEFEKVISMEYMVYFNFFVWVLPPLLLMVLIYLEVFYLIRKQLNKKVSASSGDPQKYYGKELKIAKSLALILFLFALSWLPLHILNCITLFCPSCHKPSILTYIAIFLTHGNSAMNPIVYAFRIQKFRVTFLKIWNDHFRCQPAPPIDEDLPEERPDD

Adenosine receptor A3 = biological target: T5, Adenosine receptor A3 (Homo sapiens, UniProt P0DMS8)
T5 sequence (P0DMS8 whole entry): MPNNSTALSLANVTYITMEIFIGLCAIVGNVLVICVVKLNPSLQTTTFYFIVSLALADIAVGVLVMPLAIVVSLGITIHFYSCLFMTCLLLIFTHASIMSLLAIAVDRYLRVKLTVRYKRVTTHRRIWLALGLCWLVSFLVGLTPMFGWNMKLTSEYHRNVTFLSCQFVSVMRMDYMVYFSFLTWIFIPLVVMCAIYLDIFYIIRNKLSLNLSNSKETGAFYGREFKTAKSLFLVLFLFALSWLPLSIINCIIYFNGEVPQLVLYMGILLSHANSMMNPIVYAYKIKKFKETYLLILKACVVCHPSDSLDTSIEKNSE

[5] = biological target: Neuronal acetylcholine receptor subunit alpha-4 (Homo sapiens, UniProt P43681)
Sequence of Neuronal acetylcholine receptor subunit alpha-4 (P43681 whole entry): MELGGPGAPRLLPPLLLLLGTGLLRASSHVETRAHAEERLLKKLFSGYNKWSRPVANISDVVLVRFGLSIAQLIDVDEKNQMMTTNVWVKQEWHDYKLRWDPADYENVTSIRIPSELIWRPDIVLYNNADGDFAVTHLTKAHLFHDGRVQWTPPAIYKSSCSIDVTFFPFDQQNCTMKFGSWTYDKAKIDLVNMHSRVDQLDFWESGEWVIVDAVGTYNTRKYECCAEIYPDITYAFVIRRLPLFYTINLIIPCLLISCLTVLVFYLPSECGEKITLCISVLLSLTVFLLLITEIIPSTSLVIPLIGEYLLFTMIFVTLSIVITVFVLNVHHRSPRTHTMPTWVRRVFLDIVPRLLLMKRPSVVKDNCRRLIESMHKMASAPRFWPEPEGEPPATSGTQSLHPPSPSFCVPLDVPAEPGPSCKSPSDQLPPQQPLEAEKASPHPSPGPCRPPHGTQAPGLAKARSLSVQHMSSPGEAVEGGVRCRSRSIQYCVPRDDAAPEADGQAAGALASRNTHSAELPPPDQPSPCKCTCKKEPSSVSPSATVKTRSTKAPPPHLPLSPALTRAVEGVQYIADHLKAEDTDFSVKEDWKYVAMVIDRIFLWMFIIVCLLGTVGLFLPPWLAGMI

[6] = biological target: Growth hormone secretagogue receptor type 1 (Homo sapiens, UniProt Q92847)
Sequence of Growth hormone secretagogue receptor type 1 (Q92847 whole entry): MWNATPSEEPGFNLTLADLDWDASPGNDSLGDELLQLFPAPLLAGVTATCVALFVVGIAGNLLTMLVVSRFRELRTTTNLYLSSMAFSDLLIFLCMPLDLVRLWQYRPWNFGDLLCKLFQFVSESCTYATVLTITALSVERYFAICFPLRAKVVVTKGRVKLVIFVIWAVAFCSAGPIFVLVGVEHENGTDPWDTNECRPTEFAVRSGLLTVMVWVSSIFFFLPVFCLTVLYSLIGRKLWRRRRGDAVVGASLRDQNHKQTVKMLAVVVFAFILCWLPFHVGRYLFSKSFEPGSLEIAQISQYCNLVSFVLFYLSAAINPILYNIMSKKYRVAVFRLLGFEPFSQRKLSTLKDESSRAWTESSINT

[7] = biological target: T6, 5-hydroxytryptamine receptor 2C (Homo sapiens, UniProt P28335)
T6 sequence (P28335 whole entry): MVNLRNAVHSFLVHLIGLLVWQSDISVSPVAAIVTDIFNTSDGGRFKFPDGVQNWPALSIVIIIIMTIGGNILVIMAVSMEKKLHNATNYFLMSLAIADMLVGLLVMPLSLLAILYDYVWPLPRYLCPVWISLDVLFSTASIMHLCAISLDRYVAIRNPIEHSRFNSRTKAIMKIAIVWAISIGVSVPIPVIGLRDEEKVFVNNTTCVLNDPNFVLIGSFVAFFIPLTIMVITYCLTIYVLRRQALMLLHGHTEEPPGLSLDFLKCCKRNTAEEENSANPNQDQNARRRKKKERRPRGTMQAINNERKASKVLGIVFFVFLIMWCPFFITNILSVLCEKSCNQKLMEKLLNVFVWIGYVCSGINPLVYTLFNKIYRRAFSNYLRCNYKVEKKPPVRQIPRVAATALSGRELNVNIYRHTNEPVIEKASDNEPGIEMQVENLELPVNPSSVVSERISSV

Melanocortin receptor 3 = Melanocortin receptor 3 (Homo sapiens, UniProt P41968)
Sequence of Melanocortin receptor 3 (P41968 whole entry): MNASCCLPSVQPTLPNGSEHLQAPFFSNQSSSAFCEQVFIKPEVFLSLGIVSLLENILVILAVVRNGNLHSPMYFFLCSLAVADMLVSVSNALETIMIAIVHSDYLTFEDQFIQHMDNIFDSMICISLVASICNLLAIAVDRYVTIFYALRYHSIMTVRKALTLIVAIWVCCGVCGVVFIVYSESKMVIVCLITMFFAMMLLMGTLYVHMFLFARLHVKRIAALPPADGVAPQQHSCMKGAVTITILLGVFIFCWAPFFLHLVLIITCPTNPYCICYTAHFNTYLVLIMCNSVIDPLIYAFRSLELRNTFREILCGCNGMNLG

[8] = biological target: Kappa-type opioid receptor (Homo sapiens, UniProt P41145)
Sequence of Kappa-type opioid receptor (P41145 whole entry): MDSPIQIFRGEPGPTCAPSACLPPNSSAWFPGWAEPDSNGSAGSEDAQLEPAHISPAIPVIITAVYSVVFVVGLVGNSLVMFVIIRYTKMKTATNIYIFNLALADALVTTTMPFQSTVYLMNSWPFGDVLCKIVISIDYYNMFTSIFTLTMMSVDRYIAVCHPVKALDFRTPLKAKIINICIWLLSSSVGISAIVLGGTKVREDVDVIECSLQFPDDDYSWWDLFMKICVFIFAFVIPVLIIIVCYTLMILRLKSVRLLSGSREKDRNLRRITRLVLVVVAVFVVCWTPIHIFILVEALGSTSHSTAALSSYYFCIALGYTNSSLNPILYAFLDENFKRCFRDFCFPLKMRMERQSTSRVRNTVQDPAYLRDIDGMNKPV

D(3) dopamine receptor [9] = biological target: T3, D(3) dopamine receptor; remark: listed apart in the source
Also: assay procedure not described here.

Row | Structure (SMILES) | AC50 [1] [µM] | AC50 [2] [µM] | AC50 (D(3) dopamine receptor [3]) [µM] | AC50 [4] [µM] | AC50 (Adenosine receptor A1) [µM] | AC50 (Adenosine receptor A3) [µM] | AC50 [5] [µM] | AC50 [6] [µM] | AC50 [7] [µM] | AC50 (Melanocortin receptor 3) [µM] | AC50 [8] [µM] | AC50 (D(3) dopamine receptor [9]) [µM]
1 | CC(C1=C(CCN(C)C)Cc2ccccc21)c1ccccn1 (configuration not stated) | 7.57 | 0.0784 | 6.44 | > 30 | – | – | – | – | – | – | – | –
2 | CC(=O)OC(C)OC(=O)C(C)c1ccc(-c2ccccc2)c(F)c1 (configuration not stated) | > 30 | > 30 | > 30 | 20.2 | – | – | – | – | – | – | – | –
3 | C[C@H](N)C(=O)O [ALANINE] | > 30 | > 30 | > 30 | > 30 | – | – | – | – | – | – | – | –
4 | O=C1c2c(O)cccc2Cc2cccc(O)c21 [ANTHRALIN] | > 30 | > 3 | > 30 | 0.262 | – | – | – | – | – | – | – | –
5 | CNC(=O)C[C@@H](N)C(=O)N[C@@H](C(=O)N[C@@H]1C(=O)N2[C@@H]1SC(C)(C)[C@@H]2C(=O)O)c1ccc(O)cc1 [ASPOXICILLIN] | > 30 | > 30 | > 30 | > 30 | – | – | – | – | – | – | – | –
6 | O=C(Nc1nc(-c2cc(Cl)cs2)c(N2CCN(C3CCCCC3)CC2)s1)c1cnc(N2CCC(C(=O)O)CC2)c(Cl)c1 [AVATROMBOPAG] | – | > 30 | > 30 | > 30 | > 10 | > 10 | > 10 | > 10 | > 10 | > 10 | > 10 | > 10
7 | COC(=O)C1=C(C)NC(C)=C(C(=O)O[C@H]2CCN(Cc3ccccc3)C2)[C@H]1c1cccc([N+](=O)[O-])c1 [BARNIDIPINE] | 4.07 | 2.35 | 4.3 | > 30 | – | – | – | – | – | – | – | –
8 | C[C@@H](O)[C@H]1C(=O)N2C(C(=O)[O-])=C(SC3Cn4cnc[n+]4C3)[C@H](C)[C@H]12 (some centres not stated) [BIAPENEM] | > 30 | > 30 | > 30 | > 30 | – | – | – | – | – | – | – | –
9 | CCCCOc1ccc(CC(=O)NO)cc1 [BUFEXAMAC] | > 30 | > 30 | > 30 | 0.53 | – | – | – | – | – | – | – | –
10 | Cc1nnc(SCC2=C(C(=O)O)N3C(=O)[C@@H](NC(=O)Cn4cc(Cl)c(=O)c(Cl)c4)[C@H]3SC2)s1 [CEFAZEDONE] | > 30 | > 30 | > 30 | 28.1 | – | – | – | – | – | – | – | –
11 | CO[C@@]1(NC(=O)CSCC#N)C(=O)N2C(C(=O)O)=C(CSc3nnnn3C)CS[C@@H]21 [CEFMETAZOLE] | – | > 30 | > 30 | > 30 | – | – | – | – | – | – | > 30 | > 30
12 | Nc1ncnc(Nc2ccc(Cl)cc2)n1 [CHLORAZANIL] | > 30 | > 30 | > 30 | 19.7 | – | – | – | – | – | – | – | –
13 | CC[C@H]1OC(=O)[C@H](C)[C@@H](O[C@H]2C[C@@](C)(OC)[C@@H](O)[C@H](C)O2)[C@H](C)[C@@H](O[C@@H]2O[C@H](C)C[C@H](N(C)C)[C@H]2O)[C@](C)(OC)C[C@@H](C)C(=O)[C@H](C)[C@@H](O)[C@]1(C)O [CLARITHROMYCIN] | – | > 30 | > 30 | > 30 | > 30 | > 30 | > 30 | > 30 | – | > 30 | – | –
14 | CCC[C@@H]1C[C@@H](C(=O)N[C@@H]([C@H]2O[C@H](SC)[C@H](OP(=O)(O)O)[C@@H](O)[C@H]2O)[C@H](C)Cl)N(C)C1 [CLINDAMYCIN PHOSPHATE] | > 30 | > 30 | > 30 | > 30 | – | – | – | – | – | – | – | –
15 | Oc1c(I)cc(Cl)c2cccnc12 [CLIOQUINOL] | – | > 30 | > 10 | > 30 | – | – | – | – | > 10 | – | > 30 | > 30
16 | C[C@@H]1C[C@H]2[C@@H]3C[C@H](F)C4=CC(=O)C=C[C@]4(C)[C@@]3(Cl)[C@@H](O)C[C@]2(C)[C@H]1C(=O)COC(=O)C(C)(C)C [CLOCORTOLONE PIVALATE] | > 30 | > 10 | > 30 | > 30 | – | – | – | – | – | – | – | –
17 | O=P(O)(O)C(Cl)(Cl)P(=O)(O)O [CLODRONIC ACID] | > 30 | > 30 | > 30 | > 30 | – | – | – | – | – | – | – | –
18 | Nc1ccncc1 [DALFAMPRIDINE] | > 3 | > 30 | > 30 | > 30 | – | – | – | – | – | – | – | –
19 | Cc1onc(-c2c(Cl)cccc2Cl)c1C(=O)N[C@@H]1C(=O)N2[C@@H]1SC(C)(C)[C@@H]2C(=O)O [DICLOXACILLIN] | > 30 | > 30 | > 30 | > 30 | – | – | – | – | – | – | – | –
20 | CCn1cc(C(=O)O)c(=O)c2cc(F)c(N3CCNCC3)nc21 [ENOXACIN] | – | > 30 | > 30 | > 30 | > 30 | > 30 | > 10 | > 30 | > 10 | > 30 | > 10 | > 10
21 | C[C@@H](O)[C@H]1C(=O)N2C(C(=O)O)=C([C@H]3CCCO3)S[C@H]12 [FAROPENEM] | > 30 | > 30 | > 30 | > 30 | – | – | – | – | – | – | – | –
22 | c1ccc2c(CC3=NCCN3)cccc2c1 [NAPHAZOLINE] | > 30 | > 30 | – | > 30 | – | – | – | – | – | – | – | –
23 | CNC(=O)Oc1ccc2c(c1)[C@]1(C)CCN(C)[C@@H]1N2C [PHYSOSTIGMINE] | – | > 30 | > 30 | > 30 | > 30 | > 30 | > 30 | > 30 | > 30 | > 30 | 2.2 | > 30
24 | COCCCOc1ccnc(C[S+]([O-])c2nc3ccccc3[nH]2)c1C (configuration not stated) [RABEPRAZOLE] | – | > 30 | > 30 | > 30 | 22.5 | 2.2 | > 10 | > 30 | > 30 | > 30 | > 10 | > 10
25 | c1ccc2[nH]c(-c3cscn3)nc2c1 [THIABENDAZOLE] | – | > 30 | > 30 | > 30 | – | – | – | – | – | – | – | –
26 | CCSc1ccc2c(c1)N(CCCN1CCN(C)CC1)c1ccccc1S2 [THIETHYLPERAZINE] | – | 2.24 | 0.0031 | > 30 | – | > 10 | > 3 | – | – | 18 | – | –
27 | C[C@@H]1C[C@H]2[C@@H]3CCC4=CC(=O)C=C[C@]4(C)C3=CC[C@]2(C)[C@H]1C(=O)CN1CCN(c2cc(N3CCCC3)nc(N3CCCC3)n2)CC1 [TIRILAZAD] | – | 0.432 | 9.69 | 19.4 | – | – | – | – | – | – | – | –
